This data set is described as follows: in vitro. To be noted: for Measured concentration of PEA (analyte) / % Remaining of Initial: 1 μM. As for the experimental part: (§1) Reaction mixture, minus cofactors, was prepared as described below. Test article was added into the reaction mixture at a final concentration of 1 μM. […] An aliquot of the reaction mixture (without cofactor cocktail) was equilibrated in a shaking water bath at 37° C. for 3 minutes. The reaction was initiated by the addition of cofactor cocktail, and the mixture was incubated in a shaking water bath at 37° C. Aliquots (100 μL) were withdrawn at 0, 10, 20, 30, and 60 minutes. Test article samples were immediately combined with 300 μL of ice-cold acetonitrile containing 1% formic acid. Control samples were immediately combined with 400 μL of ice-cold 50/50 acetonitrile (ACN)/dH2O containing 0.1% formic acid and internal standard to terminate the reaction. Samples were then mixed and centrifuged to precipitate proteins. Calibration standards were prepared in matched matrix. Samples and standards were assayed by LC-MS/MS using electrospray ionization for both the dosed prodrug and the expected drug (PEA). Analytical conditions are outlined in Appendix 8-1. Test article concentration at each time point was compared to test article concentration at time 0 to determine the percent remaining at each time point. Halflives were calculated using GraphPad software, fitting to a single-phase exponential decay equation.
as §1, with “for 5” for “for 3”, “minutes. Reaction” for “minutes. The reaction”, “and” for “and the”, “both” for “both the”, “Appendix 10-1.” for “Appendix 8-1.”
Reaction mixture, minus cofactors, was prepared as described below. Test article was added into the reaction mixture at a final concentration of 1 μM. […] An aliquot of the reaction mixture (without cofactor cocktail) was equilibrated in a shaking water bath at 37° C. for 3 minutes. Reaction was initiated by the addition of cofactor cocktail, and the mixture was incubated in a shaking water bath at 37° C. Aliquots (100 μL) were withdrawn at 0, 10, 20, 30, and 60 minutes. Test article samples were immediately combined with 300 μL of ice-cold acetonitrile containing 1% formic acid. Control samples were immediately combined with 400 μL of ice-cold 50/50 acetonitrile (ACN)/dH2O containing 0.1% formic acid and internal standard to terminate the reaction. Samples were then mixed and centrifuged to precipitate proteins. Calibration standards were prepared in matched matrix. Samples and standards were assayed by LC-MS/MS using electrospray ionization for both dosed prodrug and expected drug (PEA). Analytical conditions are outlined in Appendix 13-1. Test article concentration at each time point was compared to test article concentration at time 0 to determine the percent remaining at each time point. Halflives were calculated using GraphPad software, fitting to a single-phase exponential decay equation.

Where [1] appears, read: control compound, mouse intestinal S9 fraction.

As a reminder, the microsomal CLint is the capacity of the preparation to metabolise the compound, expressed as a volume cleared per time. What is called half-life is the time needed for the level to fall by half in the phase considered. Regarding `CCCCCCCCCCCCCCCC(=O)NCCOC(=O)CCC(=O)OC(COC(=O)CCC)COC(=O)CCC` [Compound I-16], the “Measured concentration of PEA (analyte)” value runs as follows: (male, CD-1, mouse, 0 min) 0 µM; (male, CD-1, mouse, 10 min) 0.10 µM; (male, CD-1, mouse, 20 min) 0.17 µM; (male, CD-1, mouse, 30 min) 0.18 µM; (male, CD-1, mouse, 60 min) 0.26 µM. The “% Remaining of Initial” value runs as follows: (male, CD-1, mouse, s9, 0 h) 100%; (male, CD-1, mouse, s9, 10 min) 2.0%; (male, CD-1, mouse, s9, 20 min) less than 1.0%; (male, CD-1, mouse, s9, 0.5 h) less than 1.0%; (male, CD-1, mouse, s9, 1 h) less than 1.0%. For the setting “male, CD-1, mouse, s9, CLint”, this compound yielded a microsomal CLint at 1 μM greater than 69.3 µL/min/mg. The same compound registered a half-life at 1 μM (male, CD-1, mouse, s9, Half-life) of less than 0.167 h.
`C[C@]12CC[C@H]3[C@@H](CCC4=CC(=O)CC[C@@]43C)[C@@H]1CC[C@@H]2O` [Testosterone, testosterone, reference compound]: the CLin under setting [1] is less than 0.0116 ml/min/mg protein. Further, under setting [1], the “CLin, calculated value in parentheses” value is reported as 0.00767 ml/min/mg protein. In addition, the microsomal CLint reads like this: (male, CD-1, mouse, s9, CLint (ml/min/mg protein), calculated value in parentheses, control compound, mouse intestinal S9 fraction, calculated value beyond duration of experiment) 9.19 µL/min/mg; (male, CD-1, mouse, s9, CLint (ml/min/mg protein), control compound, mouse intestinal S9 fraction) less than 11.6 µL/min/mg; (male, CD-1, mouse, s9, CLint, Control Compound, Mouse intestinal S9 fraction) less than 11.6 µL/min/mg; (male, CD-1, mouse, s9, CLint, Mouse intestinal S9 fraction, control compound) less than 11.6 µL/min/mg. Moreover, the half-life by setting is: (male, CD-1, mouse, s9, Half-life (min), calculated value in parentheses, control compound, mouse intestinal S9 fraction, calculated value beyond duration of experiment) 1.25 h; (male, CD-1, mouse, s9, Half-life (min), control compound, mouse intestinal S9 fraction) greater than 1 h; (male, CD-1, mouse, s9, Half-life, Control Compound, Mouse intestinal S9 fraction) greater than 1 h; (male, CD-1, mouse, s9, Half-life, calculated value in parentheses, control compound, mouse intestinal S9 fraction) 1.5 h; (male, CD-1, mouse, s9, Half-life, control compound, mouse intestinal S9 fraction) greater than 1 h. Under “male, CD-1, mouse, s9, Half-life, Mouse intestinal S9 fraction”, the half-life at 1 μM is greater than 1 h.
